What was measured:
tNFATC2 = experiment: Confocal microscopy of nuclear-localized tNFATC2 in Jurkat T cells; assay type: cell-based; conditions: activated Jurkat T cells
Description: Jurkat T cells were transfected with pCAG-EGFP-tNFATC2-IRES-mCherry-peptide by electroporation. Two days later, these cells were pretreated with […] for 30 min. Afterwards, they were treated with 40 nM PMA and 1 μM ionomycin for 4 hours under culture conditions. Nuclei were stained by treating these cells with 10 μg/ml Hoechst 33342 (Invitrogen, Waltham, MA, USA) before imaging with a confocal laser scanning microscopy (Nikon, Tokyo, Japan). Colocalization analysis of […] and Hoechst was performed with ImageJ and corresponding plug-in JACoP to measure the Manders coefficient (Manders, E. M. et al., J. Cell Sci. 103, 857-862 (1992), Bolte, J. Microsc. 224, 213-232 (2006)).

NFATC2 = experiment: NFAT mobility shifting assay in Jurkat T cells; assay type: cell-based; conditions: PMA and ionomycin
Description: In FIG. 2A, a luciferase reporter assay was performed to measure NFAT transcriptional activity. Jurkat T cells expressing GST-tagged peptides were treated with PMA and ionomycin for activation. Jurkat T cells expressing only GST were used as negative controls, and cells treated with 0.5 μM FK506 were used as positive controls (n=3). In FIG. 2B, an NFAT mobility shifting assay was performed using Jurkat T cells expressing HA-mCherry-tagged peptides. For dephosphorylation of NFATC2, Jurkat T cells were treated with PMA and ionomycin for 2 hours. In FIG. 2C, the hyperphosphorylated and hypophosphorylated NFATC2 of FIG. 2B was measured using ImageJ, and the hypo/hyper ratio was calculated (n=7). In FIG. 2D, snapshot images of the indicated peptides and activated Jurkat T cells expressing tNFATC2 were obtained using a confocal microscope. Expression and intracellular localization of peptides and tNFATC2 are indicated by mCherry (red) and EGFP (green), respectively. […] In FIG. 2E, tNFATC2 located in the nucleus was measured by calculating a ratio at which Hoechst (M1) and EGFP (M2) were present together. […] The data were repeated independently as many times as described and are expressed as means±standard deviation. Statistical differences were determined using two-sided Student's t-test (A, C) or one-way analysis of variance (E). *** p<0.001, NC: negative control. […]

Compound	proportion of nuclear-localized tNFATC2 (tNFATC2)	NFATC2 band shift (dephosphorylation) (NFATC2)
C=CC[C@@H]1/C=C(\C)C[C@H](C)C[C@H](OC)[C@H]2O[C@@](O)(C(=O)C(=O)N3CCCC[C@H]3C(=O)O[C@H](/C(C)=C/[C@@H]3CC[C@@H](O)[C@H](OC)C3)[C@H](C)[C@@H](O)CC1=O)[C@H](C)C[C@@H]2OC [FK506, Tacrolimus, reference compound]	lowest	significantly inhibited NFATC2 band shift
PEITVTPPTP [CABIN1-L-1-2]	slightly higher	significantly inhibited NFATC2 band shift
